Experimental findings from patent US9981964B2 (Agency for Science, Technology and Research, priority 2013, dated 2018) are described below.

Where only a bound is given, the exact number is not on record here.

In this experiment the test system is HEK293-STF3A cells. Nature of the experiment: STF3A assay (STF luciferase reporter in Wnt3A-expressing HEK293 cells). The format is cell-based. Particulars: Homo sapiens, 24 h, 1 day of treatment. The source says:
HEK293-STF cell line was modified from Human embryonic kidney cell line HEK293 transfected with the STF reporter. HEK293-STF3A cell line was further modified from HEK293-STF cell line to express Wnt3A. This cell line was used to identify compounds that regulate either early or late signaling components of the Wnt pathway. These two cell lines were obtained from David Virshup's laboratory, Duke-NUS. L-Wnt3A (ATCC, #CRL-2647) cell line was used for providing Wnt3A conditioned media. The three cell lines were grown in DMEM with 10% FBS incubated in 37° C. with 5% CO2.
2×10^4 HEK293-STF3A cells in 75 μl culture media were seeded in each well of white 96 well plates (Greiner #655098) and incubated overnight at 37° C. 25 μl serially diluted compound was added to the cells to give final concentration of 50 μM to 1.5 nM. After 1 day of treatment, 100 μl of Steady-Glo Luciferase Assay reagent (#E2520, Promega) was added to each well and incubated for 10 minutes at room temperature. Luminescence was measured using Tecan Safire2 plate reader.

As a reminder, the IC50 is the concentration needed to halve the response being measured. For the compound `Cc1ccc(-c2ccc(NC(=O)CN3CCCC4=C3C(=O)N(C)C4=O)nn2)cc1` [Compound 30, 2-(6-methyl-5,7-dioxo-2,3,4,5,6,7-hexahydro-1H-pyrrolo[3,4-b]pyridin-1-yl)-N-(6-(p-tolyl)pyridazin-3-yl)acetamide], the IC50 was below 100 nM.

The compound `COc1ccc(-c2ccc(NC(=O)CN3CCCC4=C3C(=O)N(C)C4=O)nn2)cc1` [Compound 31, N-(6-(4-methoxyphenyl)pyridazin-3-yl)-2-(6-methyl-5,7-dioxo-2,3,4,5,6,7-hexahydro-1H-pyrrolo[3,4-b]pyridin-1-yl)acetamide] gave an IC50 below 100 nM.

`COc1cccc(-c2ccc(NC(=O)CN3CCCC4=C3C(=O)N(C)C4=O)nn2)c1` [Compound 32, N-(6-(3-methoxyphenyl)pyridazin-3-yl)-2-(6-methyl-5,7-dioxo-2,3,4,5,6,7-hexahydro-1H-pyrrolo[3,4-b]pyridin-1-yl)acetamide] gave an IC50 below 100 nM.

Consider `CC(C)N1C(=O)C2=C(C1=O)N(CC(=O)Nc1ccc(-c3ccccc3)nn1)CCC2` [Compound 33, 2-(6-isopropyl-5,7-dioxo-2,3,4,5,6,7-hexahydro-1H-pyrrolo[3,4-b]pyridin-1-yl)-N-(6-phenylpyridazin-3-yl)acetamide], for which the IC50 is below 100 nM.

As to `Cc1cccc(-c2ccc(NC(=O)CN3CCCC4=C3C(=O)N(C)C4=O)nc2)n1` [Compound 34, 2-(6-methyl-5,7-dioxo-2,3,4,5,6,7-hexahydro-1H-pyrrolo[3,4-b]pyridin-1-yl)-N-(6-methyl-[2,3′-bipyridin]-6′-yl)acetamide], the IC50 is below 100 nM.

In the case of `Cc1ccc(-c2cnc(NC(=O)CN3CCCC4=C3C(=O)N(C)C4=O)cn2)cn1` [Compound 35], the IC50 was below 1000 nM.

Compound `CN1C(=O)C2=C(C1=O)N(CC(=O)Nc1ncc(-c3ccccc3)cn1)CCC2` [Compound 36, 2-(6-methyl-5,7-dioxo-2,3,4,5,6,7-hexahydro-1H-pyrrolo[3,4-b]pyridin-1-yl)-N-(5-phenylpyrimidin-2-yl)acetamide] displayed an IC50 below 100 nM.

For `CN1C(=O)C2=C(C1=O)N(CC(=O)Nc1ccc(-c3ccccc3)nc1)CCC2` [Compound 37, 2-(6-methyl-5,7-dioxo-2,3,4,5,6,7-hexahydro-1H-pyrrolo[3,4-b]pyridin-1-yl)-N-(6-phenylpyridin-3-yl)acetamide], the IC50 is below 100 nM.

`O=C(CN1CCCC2=C1C(=O)N(C1CCC1)C2=O)Nc1ccc(-c2ccccc2)nn1` [Compound 38, 2-(6-cyclobutyl-5,7-dioxo-2,3,4,5,6,7-hexahydro-1H-pyrrolo[3,4-b]pyridin-1-yl)-N-(6-phenylpyridazin-3-yl)acetamide] came in with an IC50 below 100 nM.

Turning to `Cc1ccc(-c2ccc(NC(=O)CN3CCCC4=C3C(=O)N(C)C4=O)nc2)cn1` [Compound 39, 2-(6-methyl-5,7-dioxo-2,3,4,5,6,7-hexahydro-1H-pyrrolo[3,4-b]pyridin-1-yl)-N-(6′-methyl-[3,3′-bipyridin]-6-yl)acetamide], the IC50 is below 100 nM.

Turning to `Cc1cncc(-c2ccc(NC(=O)CN3CCCC4=C3C(=O)N(C)C4=O)nn2)c1` [Compound 41, 2-(6-methyl-5,7-dioxo-2,3,4,5,6,7-hexahydro-1H-pyrrolo[3,4-b]pyridin-1-yl)-N-(6-(5-methylpyridin-3-yl)pyridazin-3-yl)acetamide], the IC50 was below 100 nM.

Compound `CN1C(=O)C2=C(C1=O)N(CC(=O)Nc1ccc(-c3cccc(F)c3)nn1)CCC2` [Compound 42, N-(6-(3-fluorophenyl)pyridazin-3-yl)-2-(6-methyl-5,7-dioxo-2,3,4,5,6,7-hexahydro-1H-pyrrolo[3,4-b]pyridin-1-yl)acetamide] registered an IC50 below 100 nM.

Consider `Cc1ccc(-c2ccc(NC(=O)CN3CCCC4=C3C(=O)N(C3CC3)C4=O)cn2)cn1` [Compound 44, 2-(6-cyclopropyl-5,7-dioxo-2,3,4,5,6,7-hexahydro-1H-pyrrolo[3,4-b]pyridin-1-yl)-N-(6′-methyl-[2,3′-bipyridin]-5-yl)acetamide], for which the IC50 is below 100 nM.
